PubChem BioAssay AID540252 (Sanford-Burnham Center for Chemical Genomics, 2011)
Activity calls are given as the source filed them. How the calls were made is not given here.

Molecular target: glucose-6-phosphate dehydrogenase-6-phosphogluconolactonase (Plasmodium falciparum 3D7)
Assay: PfG6PD enzyme inhibitors, direct NADPH readout, dose response, orthogonal assay, biochemical, end-point NADPH detection (AID 540252)
Details: purified PfG6PD enzyme

| Compound | IC50 |
| --- | --- |
| O=[N+]([O-])c1ccc2c(c1)-c1ccccc1C2O (centres undefined) | 23.8 µM |
| O=C(Nc1ccc([N+](=O)[O-])cc1Cl)c1cc(Cl)ccc1O | > 80 µM (inactive) |
| Cc1ccc(NC(=O)c2ccc(Cl)c(N3C(=O)C=CC3=O)c2)cc1 | 33.4 µM |
| Nc1ccc(N(CCO)CCO)cc1 | > 80 µM (inactive) |
| CCOc1ccccc1NS(=O)(=O)c1c(C)noc1C | > 80 µM (inactive) |
| COc1ccc(C(=O)Nc2cc(Cl)ccc2C(=O)O)cc1 | > 80 µM (inactive) |
| Cc1ccc(/C=C/C(=O)NCc2ccc(S(N)(=O)=O)cc2)o1 | > 80 µM (inactive) |
| Cc1ccc2nc(SCC(=O)NC3CCCc4ccccc43)[nH]c2c1 (centres undefined) | > 80 µM (inactive) |
| Cc1cc(C)nc(SSc2nc(C)cc(C)n2)n1 | 57.6 µM |
| Cc1cc(C)c(S(=O)(=O)/N=C2/C=C(SCC(=O)O)C(=O)c3ccccc32)cc1C | > 80 µM (inactive) |
| Cn1c(=O)c2[nH]c(-c3ccccc3)c(O)c2n(C)c1=O | > 80 µM (inactive) |
| O=C(CNC(=O)c1ccc(Br)cc1)NCC(=O)OCC(=O)c1ccc([N+](=O)[O-])cc1 | > 80 µM (inactive) |
| Cc1c(/C=C/C(=O)c2ccc(Cl)s2)cnn1C | > 80 µM (inactive) |
| COC1=CC(=O)C=C(OC)C1(O)CC(C)=O | > 80 µM (inactive) |
| Cc1ccc(NC(=O)Cn2sc3ccccc3c2=O)cc1 | 15 µM |
| CCC1(C)CC(C(N)=S)CCO1 (centres undefined) | > 80 µM (inactive) |
| Cc1ccc(/C=C2\C(=O)NC(=S)N(c3ccccc3F)C2=O)s1 | > 80 µM (inactive) |
| COc1cc(/C=C/C(=O)c2ccc([N+](=O)[O-])o2)ccc1O | > 80 µM (inactive) |
| Cc1ccc(S(=O)(=O)C=CS(=O)(=O)c2ccc(C)cc2)cc1 | 33.6 µM |
| Cc1cc(C)c2c(=O)n(CC(=O)Nc3ccc(Br)c(C)c3)sc2n1 | > 80 µM (inactive) |
| O=C1C=CC(=O)N1CCCCCCCCCCN1C(=O)C=CC1=O | > 80 µM (inactive) |
| COc1cc(N=Cc2c(CO)cnc(C)c2O)cc(OC)c1OC | > 80 µM (inactive) |
| CCCn1cc(S(=O)(=O)CC(=O)Nc2ccc(OC)cc2OC)c2ccccc21 | > 80 µM (inactive) |
| CCc1c(C(=O)Nc2ccccc2)c(C)[nH]c(=S)c1C#N | > 80 µM (inactive) |
| COC(=O)CCC(=O)OC1(C)C(=O)C2=CN(C3CC3)C(c3ccc(OC)cc3)=CC2=C(Br)C1=O (centres undefined) | > 80 µM (inactive) |

| Compound | IC50 |
| --- | --- |
| CN(C)c1ccc(C=c2c3cc(O)ccc3n3c2cc(-c2ccccc2)[n+]3C)cc1 | > 80 µM (inactive) |
| O=C(Nc1nnc(S(=O)(=O)N2CCCCC2)s1)c1cccc(Br)c1 | > 80 µM (inactive) |
| O=C(CCc1ccc(S(=O)(=O)N2CCOCC2)cc1)N/N=C/c1ccc(O)c(O)c1O | > 80 µM (inactive) |
| CCNc1cc2c(cc1O)CCC1C2CCC2(C)C(O)CCC12 (centres undefined) | > 80 µM (inactive) |
| CC(C)c1nnc(NC(=O)c2cc3ccccc3o2)s1 | > 80 µM (inactive) |
| COc1ccc(N2CSC3=C(C#N)C(c4ccc(OC)c(OC)c4)CC(=O)N3C2)c(OC)c1 (centres undefined) | > 80 µM (inactive) |
| O=C(Cn1sc2ccccc2c1=O)Nc1ccc(F)cc1 | 21.9 µM |
| CC(=NNC(=S)N1CCN(c2ccccn2)CC1)c1nccs1 | > 80 µM (inactive) |
| Cc1ccc(S(=O)(=O)N(C(=O)c2ccncc2)c2ccc(OC(=O)c3ccncc3)c3ccccc23)cc1 | > 80 µM (inactive) |
| CCN1CCCC1CNC(=O)c1ccc2c(c1)NC(=O)/C(=C\c1ccccc1Cl)S2 (centres undefined) | > 80 µM (inactive) |
| COc1cc(CN2CCN(CCCc3ccccc3)C(CCO)C2)cc(OC)c1O (centres undefined) | > 80 µM (inactive) |
| COc1ccc(NS(=O)(=O)c2ccc(N3CCCC3)c(NC(=S)Nc3cccc(C)c3C)c2)cc1 | > 80 µM (inactive) |
| Cc1cccc(OCC(=O)NCC(=O)N/N=C/c2ccccc2)c1 | > 80 µM (inactive) |
| Oc1ccc(C2C[C@H]3CC[C@@H]2C3)cc1O (some centres undefined) | 31.3 µM |
| COc1c(O)c(O)c2oc(-c3ccccc3)cc(=O)c2c1OC | > 80 µM (inactive) |
| CCC1(CC)Cc2ccccc2C(N)=C1C#N | > 80 µM (inactive) |
| Nc1ccc(S(=O)(=O)c2cc(O)c3ccccc3c2O)cc1 | > 80 µM (inactive) |
| O=C(Nc1nnc(S(=O)(=O)N2CCCCC2)s1)c1ccc(Cl)cc1 | > 80 µM (inactive) |
| O=C(Cn1sc2ccccc2c1=O)Nc1ccc(Br)cc1 | 22.4 µM |
| COc1cc(OC)c(C2CC(=O)N3CN(c4ccccc4)CSC3=C2C#N)cc1OC (centres undefined) | > 80 µM (inactive) |
| COc1cccc(/C=N/NC(=O)CSc2cccc3cccnc23)c1 | > 80 µM (inactive) |
| OCCN1CCN(C(=S)c2ccc(Cl)c(Cl)c2)CC1 | > 80 µM (inactive) |
| COc1cc(N2C(=O)C=CC2=O)ccc1N1C(=O)C=CC1=O | 16.5 µM |
| O=c1c2cc([N+](=O)[O-])ccc2sn1-c1ccccc1 | 13.9 µM |
| CCOC(=O)Cc1cc(=O)n2[nH]c(C(C)(C)C)cc2n1 | > 80 µM (inactive) |

| Compound | IC50 |
| --- | --- |
| CCn1c2ccccc2c2cc(/C=N/n3cn[nH]c3=S)ccc21 | > 80 µM (inactive) |
| C=CCN1CCc2cccc3c2[C@H]1Cc1ccc(O)c(O)c1-3 | > 80 µM (inactive) |
| Cc1cc(O)c(C(C)C)cc1N=Cc1ccc(N(C)C)cc1 | > 80 µM (inactive) |
| C[C@]12CC[C@@H]3c4ccc(O)c(O)c4CC[C@H]3[C@@H]1CC[C@@H]2O | 22.3 µM |
| O=S(c1ccccc1O)S(=O)c1ccccc1O (centres undefined) | > 80 µM (inactive) |
| COc1cc(C(=O)O/N=C2/C=C(C)C(=O)C=C2C)cc(OC)c1OC | > 80 µM (inactive) |
| O=C(Cc1ccccc1)NCC(=O)OCC(=O)c1ccc([N+](=O)[O-])cc1 | 64 µM |
| CCOC(=O)c1ccc(-n2c(N)c(C(=O)NCC3CCCO3)sc2=S)cc1 (centres undefined) | > 80 µM (inactive) |
| COc1cccc(-c2c(C(=O)N/N=C/c3ccc(C)o3)nnn2-c2nonc2N)c1 | > 80 µM (inactive) |
| Cc1ccc(S(=O)(=O)/N=C2/C=C(C3C(=O)CC(C)(C)CC3=O)C(=O)c3ccccc32)cc1 | > 80 µM (inactive) |
| COc1ccc(CCn2c(NN=C3CCCCC3)nc3c2c(=O)[nH]c(=O)n3C)cc1 | > 80 µM (inactive) |
| CNS(=O)(=O)c1ccc(-c2ccc(C=C3C(=O)NC(=O)NC3=O)o2)cc1 | > 80 µM (inactive) |
| O=C(O)C(Cc1ccccc1)N1C(=O)C=CC1=O (centres undefined) | 51 µM |
| COc1ccc(OC)c2c1C(=O)C(Cl)=C(Cl)C2=O | 23.3 µM |
| CCN(CC)c1nc(N)nc(NS(=O)(=O)c2ccc(Cl)cc2)n1 | > 80 µM (inactive) |
| COc1c2ccoc2c(OCC=C(C)C)c2oc(=O)ccc12 | > 80 µM (inactive) |
| O=C1CCN(c2ccccc2)N1 | > 80 µM (inactive) |
| CN(C)C=Nc1ccc2nc3c(cc2c1)[nH]c1ccccc13 | > 80 µM (inactive) |
| CCc1ccccc1N1CSC2=C(C#N)C(c3ccccc3F)CC(=O)N2C1 (centres undefined) | > 80 µM (inactive) |
| c1ccc(SSc2ccccn2)nc1 | 60.8 µM |
| O=[N+]([O-])c1ccc(-[n+]2ccc3ccccc3c2)c([N+](=O)[O-])c1 | > 80 µM (inactive) |
| CCn1c(SCc2nc3scc(-c4ccccc4)c3c(=O)[nH]2)nnc1-c1cccs1 | > 80 µM (inactive) |
| O=S(=O)(Nc1cccc2cccnc12)c1ccccc1 | > 80 µM (inactive) |
| Cc1ccc(C(=O)NCC(=O)NCC(=O)OCC(=O)c2ccc([N+](=O)[O-])cc2)cc1 | 48.4 µM |
